According to PubChem BioAssay (NCI):
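Each compound was tested at five concentrations against cells in 96-well plates for 48 hours. Abbreviation: GI50, concentration required for 50% inhibition of growth. TGI marks complete inhibition of growth.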

Experiments:
Experiment in all cases: NCI tumour cell line growth inhibition, 48 h
[1] = tested on: HOP-18 NSCLC
[2] = tested on: KM20L2 colon
[3] = tested on: LXFL 529 NSCLC
[4] = tested on: SNB-78 CNS
[5] = tested on: XF 498 CNS
[6] = tested on: P388 leukemia
[7] = tested on: P388/ADR leukemia
[8] = tested on: SN12K1 renal
[9] = tested on: RXF-631 renal

## CCC12C=CCN3CCC4(C(=C(C(=O)OC)[C@@H]1O)Nc1ccccc14)C32 (some centres undefined)
[1]
  TGI: 4.87 µM
[2]
  TGI: 3.54 µM
[3]
  TGI: 3.13 µM
[4]
  TGI: 7.35 µM
[5]
  TGI: 3.05 µM

## O=C1CCC23CC(C=CC=C12)n1c(=O)n(-c2ccccc2)c(=O)n13 (centres undefined)
[1]
  TGI: > 100 µM
[6]
  TGI: > 100 µM
[7]
  TGI: > 100 µM
[8]
  TGI: > 100 µM
[4]
  TGI: > 100 µM
[5]
  TGI: > 100 µM

## O=C(Nc1ccc(C2=NCCN2)cc1)c1cncc(C(=O)Nc2ccc(C3=NCCN3)cc2)c1
[1]
  TGI: > 100 µM
[2]
  TGI: > 100 µM
[6]
  TGI: 82.5 µM
[7]
  TGI: > 100 µM
[8]
  TGI: > 100 µM
[4]
  TGI: > 100 µM
[5]
  TGI: > 100 µM

## Cc1cccc2c(=O)cc(-c3ccccc3)[nH]c12
[2]
  TGI: 19.4 µM
[3]
  TGI: > 100 µM
[5]
  TGI: > 100 µM

## CNC(=O)C(C)C1CCC2(C)C=CC(=O)C(C)=C2C1O (centres undefined)
[2]
  TGI: > 100 µM
[6]
  TGI: > 100 µM
[7]
  TGI: > 100 µM
[8]
  TGI: > 100 µM
[4]
  TGI: > 100 µM
[5]
  TGI: > 100 µM

## [N-]=[N+]=Nc1cc(=O)oc2ccccc12
[1]
  TGI: > 100 µM
[3]
  TGI: > 100 µM

## COc1nc(N)c(C(=O)CCl)c(=O)n1C
[1]
  TGI: 31.2 µM
[2]
  TGI: 50.1 µM
[3]
  TGI: 27.1 µM
[9]
  TGI: 31.6 µM
[4]
  TGI: 40.2 µM
[5]
  TGI: 32.6 µM

## CC(N)Cc1ccc(C(=O)Cl)cc1 (centres undefined)
[2]
  TGI: > 100 µM
[3]
  TGI: > 100 µM
[9]
  TGI: > 100 µM
[5]
  TGI: > 100 µM

## N#CN=C(N(Cc1ccccc1)Cc1ccccc1)N(Cc1ccccc1)Cc1ccccc1
[1]
  TGI: > 100 µM
[2]
  TGI: > 100 µM
[3]
  TGI: > 100 µM
[4]
  TGI: > 100 µM
[5]
  TGI: 89.8 µM

## N.N.N.N.O=[N+]([O-])[O-].[Co+3].[N-]=[N+]=[N-].[N-]=[N+]=[N-]
[2]
  GI50: > 100 µM
  TGI: > 100 µM
[3]
  GI50: > 100 µM
  TGI: > 100 µM
[4]
  GI50: > 100 µM
  TGI: > 100 µM

## Cc1c2cnccc2c(C)c2c1c1ccccc1n2CCCN
[1]
  TGI: 2.65 µM
[2]
  TGI: 0.989 µM
[6]
  TGI: 0.212 µM
[7]
  TGI: 0.707 µM
[8]
  TGI: 0.831 µM
[4]
  TGI: 2.23 µM
[5]
  TGI: 1.4 µM

## Cc1cc(=O)[nH]c(NN2C(Cl)C(=O)C2c2ccccc2O)n1 (centres undefined)
[1]
  TGI: 8.97 µM
[2]
  TGI: > 100 µM
[3]
  TGI: 54.5 µM
[4]
  TGI: > 100 µM

## CCN(CC)CCC(=O)Nc1ccc2c(c1)C(=O)c1ccc(NC(=O)CCN(CC)CC)cc1C2=O
[1]
  TGI: 18.4 µM
[2]
  TGI: 28 µM
[3]
  TGI: 12 µM
[4]
  TGI: 48.3 µM

## CC1C=C(CCCCCCCCCCCC[C@@H](O)[C@@H]2CC[C@@H]([C@@H]3CC[C@@H](C(O)CCCCCCCCCCCCC4=C[C@H](C)OC4=O)O3)O2)C(=O)O1 (some centres undefined)
[1]
  TGI: > 100 µM
[2]
  TGI: > 100 µM
[3]
  TGI: > 100 µM
[5]
  TGI: > 100 µM

## CC(C)CCCCCCCCCCCCC(=O)NCC(=O)NC1C(C)OC(Nc2ncnc3c2ncn3C)C(O)C1O (centres undefined)
[1]
  TGI: > 30.1 µM
[2]
  TGI: > 100 µM
[6]
  TGI: > 100 µM
[7]
  TGI: > 100 µM
[8]
  TGI: > 100 µM
[4]
  TGI: > 100 µM
[5]
  TGI: > 62 µM

## CC(=O)Nc1ccc(-c2nnc(SCC(=O)Nc3ccc([N+](=O)[O-])cc3)o2)cc1
[1]
  TGI: 29.9 µM
[2]
  TGI: 28.4 µM
[3]
  TGI: 20.4 µM
[4]
  TGI: 34.3 µM

## C[n+]1c2ccccc2c(/C=N\NS(=O)(=O)c2ccc(O)c(C(=O)O)c2)c2ccccc21
[2]
  TGI: > 100 µM
[9]
  TGI: > 100 µM
[4]
  TGI: > 100 µM
[5]
  TGI: 83.8 µM
